Patent publication EP4477653A1 (Perha Pharmaceuticals, priority 2023, dated 2024)
pIC50: −log10 of the molar value.

Target: T1, human recombinant A3AR (expressed in HEK-293 cells) (Homo sapiens, UniProt P0DMS8)
T1 construct: host or cells: HEK-293 cells
T1 sequence (P0DMS8 1-318): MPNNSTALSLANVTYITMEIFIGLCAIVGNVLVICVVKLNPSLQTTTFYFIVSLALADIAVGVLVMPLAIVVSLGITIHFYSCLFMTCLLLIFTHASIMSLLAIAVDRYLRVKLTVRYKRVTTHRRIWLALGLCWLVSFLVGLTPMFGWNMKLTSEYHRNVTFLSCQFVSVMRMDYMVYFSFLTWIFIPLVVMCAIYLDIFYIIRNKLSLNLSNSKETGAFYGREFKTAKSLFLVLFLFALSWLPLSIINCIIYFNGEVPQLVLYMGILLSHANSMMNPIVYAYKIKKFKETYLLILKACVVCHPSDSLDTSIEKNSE
Test: Adenosine receptors antagonism assay (Eurofins), [125I]-AB-MECA radioligand competition
Format: binding
Conditions: [125I]-AB-MECA 0.15 nM, r.t., 120 min; IC50 from dose-response curves; read-out: Potency Class A3AR

Row | Structure (SMILES) | pIC50
1 | CCC(CC)Nc1cc(Nc2ccncc2)c2nnc(C(C)C)n2n1 [compound 48, N6-(1-ethylpropyl)-3-isopropyl-N8-(4-pyridyl)-[1,2,4]triazolo[4,3-b]pyridazine-6,8-diamine] | 8.00 to 9.00
2 | CC[C@H](CO)Nc1cc(NCc2ccc(N)cc2)c2nnc(C(C)C)n2n1 [compound 74, (2R)-2-[[8-[(4-aminophenyl)methylamino]-3-isopropyl-[1,2,4]triazolo[4,3-b]pyridazin-6-yl]amino]butan-1-ol] | 7.00 to 8.00
3 | CCC(CC)Nc1cc(Nc2cccc(OC)n2)c2nnc(C(C)C)n2n1 [compound 154, 3-isopropyl-N8-(6-methoxypyridin-2-yl)-N6-(pentan-3-yl)-[1,2,4]triazolo[4,3-b]pyridazine-6,8-diamine] | > 9.00
4 | CCC(CC)Nc1cc(NCc2cccnn2)c2nnc(C(C)C)n2n1 [compound 95, N6-(1-ethylpropyl)-3-isopropyl-N8-(pyridazin-3-ylmethyl)-[1,2,4]triazolo[4,3-b]pyridazine-6,8-diamine] | 8.00 to 9.00
5 | c1ccc(CNc2cc(NCc3ccoc3)nn3c(C4CC4)nnc23)nc1 [compound 209, 3-cyclopropyl-N6-(furan-3-ylmethyl)-N8-(pyridin-2-ylmethyl)-[1,2,4]triazolo[4,3-b]pyridazine-6,8-diamine] | 8.00 to 9.00
6 | c1ccc(CNc2cc(NCC3CC3)nn3c(C4CC4)nnc23)nc1 [compound 203, 3-cyclopropyl-N6-(cyclopropylmethyl)-N8-(pyridin-2-ylmethyl)-[1,2,4]triazolo[4,3-b]pyridazine-6,8-diamine] | 7.00 to 8.00
7 | CCC(CC)Nc1cc(NC2CCc3ccccc32)c2nnc(C(C)C)n2n1 (racemic) [compound 81, N6-(1-ethylpropyl)-N8-indan-1-yl-3-isopropyl-[1,2,4]triazolo[4,3-b]pyridazine-6,8-diamine] | 7.00 to 8.00
8 | CCC(CC)Nc1cc(NCc2ccccn2)c2nnc(C3CCC3)n2n1 [compound 63, 3-cyclobutyl-N6-(1-ethylpropyl)-N8-(2-pyridylmethyl)-[1,2,4]triazolo[4,3-b]pyridazine-6,8-diamine] | 8.00 to 9.00
9 | CCC(CC)CNc1cc(NCc2ccccn2)c2nnc(C3CC3)n2n1 [compound 196, 3-cyclopropyl-N6-(2-ethylbutyl)-N8-(pyridin-2-ylmethyl)-[1,2,4]triazolo[4,3-b]pyridazine-6,8-diamine] | 8.00 to 9.00
10 | CC[C@H](CO)Nc1cc(Nc2ccccn2)c2nnc(C(C)C)n2n1 [compound 163, (2R)-2-[[3-isopropyl-8-(2-pyridylamino)-[1,2,4]triazolo[4,3-b]pyridazin-6-yl]amino]butan-1-ol] | 7.00 to 8.00
11 | CC[C@H](CO)Nc1cc(NCCc2ccccn2)c2nnc(C3CC3)n2n1 [compound 185, (2R)-2-[[3-cyclopropyl-8-[2-(2-pyridyl)ethylamino]-[1,2,4]triazolo[4,3-b]pyridazin-6-yl]amino]butan-1-ol] | 7.00 to 8.00
12 | CC(C)c1nnc2c(NCc3ccccc3)cc(NCCC(=O)N(C)C)nn12 [compound 27, 3-[[8-(benzylamino)-3-isopropyl-[1,2,4]triazolo[4,3-b]pyridazin-6-yl]amino]-N,N-dimethyl-propanamide] | 6.00 to 7.00
13 | COCCCNc1cc(NCc2ccccc2)c2nnc(C(F)(F)F)n2n1 [compound 36, N8-benzyl-N6-(3-methoxypropyl)-3-(trifluoromethyl)-[1,2,4]triazolo[4,3-b]pyridazine-6,8-diamine] | 7.00 to 8.00
14 | CCC(CC)Nc1cc(Nc2cnccn2)c2nnc(C3CC3)n2n1 [compound 180, 3-cyclopropyl-N6-(pentan-3-yl)-N8-(pyrazin-2-yl)-[1,2,4]triazolo[4,3-b]pyridazine-6,8-diamine] | > 9.00
15 | CC(C)c1nnc2c(NCc3ccc(-c4ccncc4)cc3)cc(N[C@H](CO)[C@@H](C)O)nn12 [compound 108, (2R,3R)-2-[[3-isopropyl-8-[[4-(4-pyridyl)phenyl]methylamino]-[1,2,4]triazolo[4,3-b]pyridazin-6-yl]amino]butane-1,3-diol] | 6.00 to 7.00
